Read-outs that look alike come from different tables or passages of the source.
Experiments:
[1] = target: T1, M4 muscarinic receptor (Homo sapiens, UniProt P08173); assay: Functional mobilization of intracellular calcium (FLIPR) in M4-CHO cells; format: cell-based
T1 construct: expressed in transfected cells; host or cells: CHO (M4-CHO)
T1 sequence (P08173 1-479): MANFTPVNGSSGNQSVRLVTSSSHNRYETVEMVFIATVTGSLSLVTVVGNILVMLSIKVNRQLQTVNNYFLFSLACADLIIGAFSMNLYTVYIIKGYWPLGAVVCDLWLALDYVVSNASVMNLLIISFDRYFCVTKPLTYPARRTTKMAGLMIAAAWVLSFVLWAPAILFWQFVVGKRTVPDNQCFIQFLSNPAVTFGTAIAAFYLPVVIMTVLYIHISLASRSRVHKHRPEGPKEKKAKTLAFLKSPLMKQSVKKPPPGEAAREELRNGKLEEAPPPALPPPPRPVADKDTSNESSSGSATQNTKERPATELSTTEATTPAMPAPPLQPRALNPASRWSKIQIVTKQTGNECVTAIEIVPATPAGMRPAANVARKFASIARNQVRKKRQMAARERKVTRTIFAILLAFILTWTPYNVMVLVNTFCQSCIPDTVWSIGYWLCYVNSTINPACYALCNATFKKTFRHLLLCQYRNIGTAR
How it was run: (§1)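 Steps: seed M1- or M4-CHO cells 18-24 hrs ahead; load calcium dye with 1 mM probenecid; add test compound (0.5% DMSO final), either alone for agonism or 15 min before EC80 carbachol for inhibition; record FLIPR fluorescence for 60 sec.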

[2] = target: T2, M1 muscarinic receptor (Homo sapiens, UniProt P11229); assay: Functional mobilization of intracellular calcium (FLIPR) in M1-CHO cells; format: cell-based
T2 construct: expressed in transfected cells; host or cells: CHO (M1-CHO)
T2 sequence (P11229 1-460): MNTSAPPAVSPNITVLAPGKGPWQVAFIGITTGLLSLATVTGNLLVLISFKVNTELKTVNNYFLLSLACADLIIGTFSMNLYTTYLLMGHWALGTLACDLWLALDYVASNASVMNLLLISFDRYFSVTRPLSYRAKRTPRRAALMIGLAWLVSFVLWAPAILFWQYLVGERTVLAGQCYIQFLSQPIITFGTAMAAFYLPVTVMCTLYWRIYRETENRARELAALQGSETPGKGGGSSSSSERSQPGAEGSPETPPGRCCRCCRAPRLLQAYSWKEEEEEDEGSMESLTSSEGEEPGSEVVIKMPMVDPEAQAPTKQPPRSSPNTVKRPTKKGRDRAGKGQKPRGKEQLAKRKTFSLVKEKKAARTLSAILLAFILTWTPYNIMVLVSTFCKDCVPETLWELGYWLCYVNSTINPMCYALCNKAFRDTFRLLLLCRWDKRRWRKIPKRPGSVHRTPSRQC
How it was run: as §1

[3] = Table 4, 100% efficacy is the maximum response obtained with the Carbachol control
[4] = Table 4, modulating M4 receptor
[5] = Table 4, modulating M1 receptor
[6] = M4 receptor, calcium mobilization
[7] = M4 receptor, calcium mobilization, read-out: M4 Efficacy
[8] = M1 receptor, calcium mobilization
[9] = M1 receptor, calcium mobilization, read-out: M1 Efficacy

SMILES | Emax [1, 3] | Emax [2, 3] | M4 Activity [1, 6] | Emax [1, 7] | M1 Activity [2, 8] | Emax [2, 9] | also measured
CCCOC(=O)N1CC[C@H](CN2CCC3(CC2)CN(C(=O)N(C)C)c2ccc(F)cc23)C1 [compound 510] | 25 to 100% | 25 to 100% |  |  |  |  | M4 Activity [1, 4]: xxx (activity was measured to be less than 2.0 μM); M1 Activity [2, 5]: xxx (activity was measured to be less than 2.0 μM)
CCOC(=O)N1CCC(N2CCC3(CC2)CN(c2ccc(OC)nn2)c2ccc(F)cc23)CC1 [compound 896] | 25 to 100% | 25 to 100% |  |  |  |  | M4 Activity ([1]; Table 4, M4 receptor, calcium mobilization (FLIPR)): xxx (activity was measured to be less than 2.0 μM); M1 Activity ([2]; Table 4, M1 receptor, calcium mobilization (FLIPR)): xxx (activity was measured to be less than 2.0 μM)
Fc1ccc2c(c1)C1(CCN([C@H]3C[C@@H]4CC[C@@H]3C4)CC1)CO2 [compound 204] |  |  | x (activity was measured to be greater than 1.0 μM) | < 65% | xxx (activity was measured to be less than 0.1 μM) | 65 to 85% | 
CCOC(=O)N1CCC(N2CCC3(CC2)CN(C(=O)c2ccccc2)c2ccc(F)cc23)CC1 [compound 384] |  |  |  |  |  |  | EC50 ([1]; M4-CHO cells, calcium mobilization (FLIPR)): > 1000 nM; Emax ([1]; M4-CHO cells, calcium mobilization (FLIPR), read-out: M4 Efficacy): < 65%; EC50 ([2]; M1-CHO cells, calcium mobilization (FLIPR)): 100 to 1000 nM; Emax ([2]; M1-CHO cells, calcium mobilization (FLIPR), read-out: M1 Efficacy): < 65%
CC(=O)N1CC2(CCN(CC3CCN(C(=O)OC(C)C)CC3)CC2)c2cc(F)ccc21 [compound 202] |  |  | x (activity was measured to be greater than 1.0 μM) | < 65% | xx (activity was measured to be between 0.1 μM and 1.0 μM) | 65 to 85% | 
CCOC(=O)N1CCC(N2CCC3(CC2)CN(C(C)=O)c2ccc(-c4ccc(S(C)(=O)=O)cc4)cc23)CC1 [compound 177] |  |  | xx (activity was measured to be between 0.1 μM and 1.0 μM) | 65 to 85% | xxx (activity was measured to be less than 0.1 μM) | 65 to 85% | 
O=C(N[C@H]1CC2(CCN(CCC3CC4CC[C@@H]3C4)CC2)c2ccccc21)N1CCCC1 (some centres unmarked) [compound 726] | < 25% | < 25% |  |  |  |  | M4 Activity [1, 4]: x (activity was measured to be greater than 5.0 μM); M1 Activity [2, 5]: x (activity was measured to be greater than 5.0 μM)
COc1cc2c(cc1OC)C1(CCN(C3CCCCCCCCCCC3)CC1)C[C@@H]2NC(C)=O [compound 599] | 25 to 100% | 25 to 100% |  |  |  |  | M4 Activity [1, 4]: x (activity was measured to be greater than 5.0 μM); M1 Activity [2, 5]: x (activity was measured to be greater than 5.0 μM)
CCOC(=O)N1C2CCC1CC(N1CCC3(CCc4ccccc43)CC1)C2 (centres unmarked) [compound 365] |  |  | x (activity was measured to be greater than 1.0 μM) | < 65% | xxx (activity was measured to be less than 0.1 μM) | 65 to 85% | 
CCOC(=O)N1CCC(N2CCC3(CC2)CN(C(C)=O)c2ccc(-c4ccc(C#N)cc4)cc23)CC1 [compound 253] |  |  | x (activity was measured to be greater than 1.0 μM) | 65 to 85% | xx (activity was measured to be between 0.1 μM and 1.0 μM) | 65 to 85% | 
CCOC(=O)N1CCC(N2CCC3(CC2)CN(C(C)=O)c2ccc(-c4cccc(OC)c4)cc23)CC1 [compound 648] | < 25% | 25 to 100% |  |  |  |  | M4 Activity [1, 4]: x (activity was measured to be greater than 5.0 μM); M1 Activity [2, 5]: xx (activity was measured to be between 2.0 μM and 5.0 μM)
CCOC(=O)N1C2CCC1CC(N1CCC3(CC1)CC(=O)Nc1ccccc13)C2 (centres unmarked) [compound 56] |  |  | xxx (activity was measured to be less than 0.1 μM) | 65 to 85% | xxx (activity was measured to be less than 0.1 μM) | 65 to 85% | 
CCOC(=O)N1C2CCC1CC(N1CCC3(CC1)CN(C(=O)OCCOC)c1ccc(F)cc13)C2 (centres unmarked) [compound 90] |  |  | x (activity was measured to be greater than 1.0 μM) | < 65% | xx (activity was measured to be between 0.1 μM and 1.0 μM) | 65 to 85% | 
CC(=O)N1CC2(CCN(C3CCCCCC3)CC2)c2cc(F)ccc21 [compound 210] |  |  | x (activity was measured to be greater than 1.0 μM) | < 65% | xx (activity was measured to be between 0.1 μM and 1.0 μM) | 65 to 85% | 

— US7786141B2 (Vertex Pharmaceuticals Incorporated, priority 2004, dated 2010)
